We go through seven compounds from article PMC6154534, “New Benzimidazole-1,2,4-Triazole Hybrid Compounds: Synthesis, Anticandidal Activity and Cytotoxicity Evaluation” (Molecules : A Journal of Synthetic Chemistry and Natural …, 2017).

One data set relates to C. albicans (ATCC 24433). The data set is described as follows: Anticandidal broth microdilution (EUCAST EDef 7.1), resazurin fluorometric readout. It is filed as cell-based. The note with it: Candida albicans, ATCC24433; ATCC 24433, RPMI pH 7, 24 h incubation. Here is the method: (§1) Synthesized compounds (5a-5ad) were evaluated for anticandidal activity against C. albicans (ATCC 24433), C. krusei (ATCC 6258), C. parapsilosis (ATCC 22019) and C. [NT] 90030). MIC50 values were evaluated via fluorometric measurements, using resazurin solution [56, 57]. […] [NT] 90030). MIC readings were carried out twice for each chemical agent. The yeasts were maintained in RPMI after overnight incubation at 37 °C. The inocula of test microorganisms adjusted to match the turbidity of a MacFarland 0.5 standard tube as determined with a spectrophotometer and the final inoculum size was 0.5-2.5 × 10^5 cfu/mL for antifungal assay. Testing was carried out in RPMI at pH = 7 and the two-fold serial dilutions technique was applied. The last well on the microplates containing only inoculated broth was kept as controls and the last well with no growth of microorganism was recorded to represent the MIC50 expressed in μg/mL. For the antifungal assays, the compounds were dissolved in DMSO. […] The completed plates were incubated for 24 h. At the end of the incubation, resazurin (20 μg/mL) was added into each well to control whether the growth in wells. Then, plates were allowed to incubate for 2 h. MIC50 values were determined using a microplate reader at […].
On the technique in general: Broth dilution looks for growth in wells or tubes with falling amounts of substance.

Data set [1] deals with C. parapsilosis (ATCC 22019). Described as above. The conditions noted are these: Lodderomyces parapsilosis, ATCC22019; ATCC 22019, RPMI pH 7, 24 h incubation; read-out: MIC50 C. parapsilopsis. It is filed as cell-based. The procedure: as §1
A further data set has as its system C. krusei (ATCC 6258). Described as above. It is filed as cell-based. The note with it: Pichia kudriavzevii, ATCC6258; ATCC 6258, RPMI pH 7, 24 h incubation. Here is the method: as §1
Another data set has as its system C. glabrata (ATCC 90030). Described as above. It counts as cell-based. The note with it: Nakaseomyces glabratus, ATCC90030; ATCC 90030, RPMI pH 7, 24 h incubation. Here is the method: as §1
In data set [2] the test system is NIH/3T3 mouse embryonic fibroblast cell line (ATCC CRL1658). The data set is described as follows: MTT cytotoxicity assay. It is filed as cell-based. The conditions noted are these: NIH3T3, tested 800 to 0.78 µg/mL, read-out: IC50 on NIH/3T3 mouse embryonic fibroblast cell lines. From the text: Toxicity is a key cause of failure at all steps of the new drug development process. The most part of safety-related problems occur at preclinical phases to predict preclinical safety liabilities earlier in the new drug development process. This approach allows to design and/or selection of better drug candidates that have more potentials to be marketed drugs. […] Cytotoxicities of selected compounds (5m, 5o, 5r, 5w, 5y, 5ab, and 5ad), displaying strong anticandidal activity and good predicted pharmacokinetics, were determined against NIH/3T3 mouse embryonic fibroblast cell lines (ATCC CRL1658).
Cytotoxicity was tested using the NIH/3T3 mouse embryonic fibroblast cell line (ATCC® CRL-1658™, London, UK). NIH/3T3 cells were incubated according to the supplier’s recommendations and they were seeded at 1 × 10^4 cells into each well of 96-well plates. MTT assay was performed as previously described. The compounds were tested in a concentration range of 800 µg/mL and 0.78 µg/mL concentrations. Percent inhibition was calculated for each concentration according to the formula below, and IC50 values were determined by plotting a concentration–response curve of inhibition percent versus compound concentrations tested.
Background: Tetrazolium dyes change colour on reduction, which living cells bring about.

In a further data set the test system is Candida species. The data set is described as follows: Anticandidal broth microdilution, results summarised over all strains. It is filed as cell-based. The conditions noted are these: summary over all four Candida strains; for MIC50: Candida, read-out: MIC50 against Candida species. Here is the method: as §1
Data set [3] has as its system ergosterol biosynthesis in C. albicans (ATCC 24433). The data set is described as follows: Quantification of ergosterol level by LC-MS-MS. It counts as cell-based. The note with it: 0.78, 1.56 and 3.12 µg/mL, 16 h, negative control = 100%. From the text:
The most of therapies, planned to treat fungal infections, target in the ergosterol biosynthesis pathway or its end product, ergosterol, a membrane sterol that is unique to fungi. It is the main sterol, and thus is essential for growth and normal membrane function of fungal cell. Besides serving as a bioregulator of membrane fluidity, asymmetry and integrity, it contributes to proper function of membrane-bound enzymes. […] Total intracellular sterols were extracted as reported by Breivik and Owades. […] Ergosterol standard (Product No. 45480, Sigma-Aldrich, Darmstadt, Germany) was used for quantification of ergosterol in both inhibitor-free (negative control) and inhibitor including samples. Ergosterol quantity in negative control samples was regarded as 100%. All concentrations were analyzed in quadruplicate, and the results were expressed as mean ± standard deviation (SD) (Figure 2).
Total intracellular sterols were extracted as reported by Breivik and Owades with slight modifications. […] The cultures were incubated for 16 h with shaking at 35 °C. […] Ergosterol quantity in negative control samples was regarded as 100%. All concentrations were analyzed in quadruplicate, and the results were expressed as mean ± standard deviation (SD).

The subject of the next data set is C. albicans. Description: Fluorescence microscopy (Live/Dead BacLight, SYTO-9 / PI). It counts as cell-based. The note with it: 3.12 µg/mL (4 × MIC50), 2 h. The source says: Ergosterol is the major fungal membrane sterol that regulates membrane fluidity, plasma membrane biogenesis and functions. […] It is known that propidium iodide (PI) enters only cells with damaged membranes, while SYTO-9 marks cells with both damaged and unaffected membranes. […] Consequently, fluorescence microscopic experiments supported the findings observed in inhibition of biosynthesis of ergosterol, which is a vital sterol regulating membrane functions. The Live/Dead BacLight viability kit from Molecular Probes, Inc. (Eugene, OR, USA) was used as reported by Nobman et al.. In this assay, the SYTO-9 and PI stains are in competition to bind to fungal nucleic acid. PI enters only cells with damaged membranes, while SYTO-9 marks cells with both damaged and unaffected membranes. A culture of C. albicans was grownup to mid-log phase in 20 mL of SDB. Twenty milliliters of the yeast culture was divided into two equal parts. […] The second culture was incubated under same conditions without a compound. Both cultures were centrifuged at 3000 rpm for 10 min. and then cell pellets were incubated with PI and SYTO9 at 40 °C for 30 min. The stained yeast cultures were observed under a fluorescence microscope (Carl-Zeis, Axio Scope.A1, Göttingen, Germany) using 100× oil-immersion objective.

Converted amounts (≈) assume the structure as drawn.

The term MIC50 denotes the lowest concentration that inhibits either 50% of growth or 50% of the strains tested, depending on the study. Broadly, the melting point is the temperature of the solid-liquid transition. With `CCn1c(SCC(=O)c2ccc(F)cc2)nnc1-c1ccc(-c2nc3ccc(F)cc3[nH]2)cc1` [Compound 5ab, 2-((4-Ethyl-5-(4-(6-fluoro-1H-benzimidazol-2-yl)phenyl)-4H-1,2,4-triazol-3-yl)thio)-1-(4-fluorophenyl)ethan-1-one], the melting point is 251 °C. In the data set on C. albicans (ATCC 24433), the MIC50 is 0.78 µg/mL (≈ 1.64 µM). In [1], the MIC50 turned out to be 0.78 µg/mL (≈ 1.64 µM). The same compound returned an MIC50 with C. krusei (ATCC 6258) of 1.56 µg/mL (≈ 3.28 µM). Besides, the MIC50 with C. glabrata (ATCC 90030) turned out to be 1.56 µg/mL (≈ 3.28 µM). Moreover, the IC50 in data set [2] was 43.1 ± 2.88 µg/mL (≈ 90.7 µM). The MIC50 with Candida species was in the range of 0.78 to 1.56 µg/mL (≈ 1.64 to 3.28 µM).

`CCn1c(SCC(=O)c2ccc(F)cc2F)nnc1-c1ccc(-c2nc3ccc(F)cc3[nH]2)cc1` [Compound 5ad, 1-(2,4-Difluorophenyl)-2-((4-ethyl-5-(4-(6-fluoro-1H-benzimidazol-2-yl)phenyl)-4H-1,2,4-triazol-3-yl)thio)ethan-1-one] registered a melting point of 234.2 °C. For the same compound, the “level of ergosterol in C. albicans (in words)” value in data set [3] is “significantly decreased the level of ergosterol at all tested concentrations”. The compound further came in with an MIC50 in the data set with C. albicans (ATCC 24433) of 0.78 µg/mL (≈ 1.58 µM). Also, the MIC50 in [1] is 0.78 µg/mL (≈ 1.58 µM). The compound further came in with an MIC50 with C. krusei (ATCC 6258) of 1.56 µg/mL (≈ 3.16 µM). Further, the MIC50 against C. glabrata (ATCC 90030) worked out at 0.78 µg/mL (≈ 1.58 µM). Also, the IC50 in [2] was determined as 120 ± 4.39 µg/mL (≈ 242 µM). Further, the MIC50 with Candida species lay within 0.78 to 1.56 µg/mL (≈ 1.58 to 3.16 µM).

In turn, `Cn1c(SCC(=O)c2ccc(F)cc2)nnc1-c1ccc(-c2nc3ccc(Cl)cc3[nH]2)cc1` [Compound 5m, 2-((5-(4-(6-Chloro-1H-benzimidazol-2-yl)phenyl)-4-methyl-4H-1,2,4-triazol-3-yl)thio)-1-(4-fluorophenyl)ethan-1-one] returned a melting point of 274.5 °C. In addition, the MIC50 in the data set on C. albicans (ATCC 24433) was 0.78 µg/mL (≈ 1.63 µM). For the same compound, the MIC50 in [1] is 0.78 µg/mL (≈ 1.63 µM). In the data set with C. krusei (ATCC 6258), this compound had an MIC50 of 0.78 µg/mL (≈ 1.63 µM). Moreover, the MIC50 against C. glabrata (ATCC 90030) is 1.56 µg/mL (≈ 3.26 µM). Besides, the IC50 in data set [2] came to 17.4 ± 0.89 µg/mL (≈ 36.4 µM). Besides, the MIC50 with Candida species fell in the range of 0.78 to 1.56 µg/mL (≈ 1.63 to 3.26 µM).

Consider `Cn1c(SCC(=O)c2ccc(F)cc2F)nnc1-c1ccc(-c2nc3ccc(Cl)cc3[nH]2)cc1` [Compound 5o, 2-((5-(4-(6-Chloro-1H-benzimidazol-2-yl)phenyl)-4-methyl-4H-1,2,4-triazol-3-yl)thio)-1-(2,4-difluorophenyl)ethan-1-one], for which the melting point was 264.9 °C. The MIC50 against C. albicans (ATCC 24433) was 0.78 µg/mL (≈ 1.57 µM). Besides, the MIC50 in data set [1] turned out to be 0.78 µg/mL (≈ 1.57 µM). In addition, in the data set with C. krusei (ATCC 6258), the MIC50 amounted to 1.56 µg/mL (≈ 3.15 µM). In addition, the MIC50 against C. glabrata (ATCC 90030) amounted to 1.56 µg/mL (≈ 3.15 µM). In addition, the IC50 in data set [2] worked out at 1.63 ± 0.02 µg/mL (≈ 3.29 µM). Moreover, in the data set on Candida species, the MIC50 is 0.78 to 1.56 µg/mL (≈ 1.57 to 3.15 µM).

In the case of `CCn1c(SCC(=O)c2ccc(F)cc2)nnc1-c1ccc(-c2nc3ccc(Cl)cc3[nH]2)cc1` [Compound 5r, 2-((5-(4-(6-Chloro-1H-benzimidazol-2-yl)phenyl)-4-ethyl-4H-1,2,4-triazol-3-yl)thio)-1-(4-fluorophenyl)ethan-1-one], the melting point came to 265.5 °C. The compound further gave an MIC50 in the data set with C. albicans (ATCC 24433) of 0.78 µg/mL (≈ 1.59 µM). Further, in data set [1], the MIC50 stood at 1.56 µg/mL (≈ 3.17 µM). Further, in the data set with C. krusei (ATCC 6258), the MIC50 stood at 1.56 µg/mL (≈ 3.17 µM). The compound further displayed an MIC50 with C. glabrata (ATCC 90030) of 0.78 µg/mL (≈ 1.59 µM). Also, the IC50 in data set [2] worked out at 13.9 ± 0.69 µg/mL (≈ 28.3 µM). Further, in the data set on Candida species, the MIC50 is 0.78 to 1.56 µg/mL (≈ 1.59 to 3.17 µM).

On to `Cn1c(SCC(=O)c2ccc(F)cc2)nnc1-c1ccc(-c2nc3ccc(F)cc3[nH]2)cc1` [Compound 5w, 2-((5-(4-(6-Fluoro-1H-benzimidazol-2-yl)phenyl)-4-methyl-4H-1,2,4-triazol-3-yl)thio)-1-(4-fluorophenyl)ethan-1-one], for which the “level of ergosterol in C. albicans (in words)” value in data set [3] is on record as “significantly decreased the level of ergosterol at all tested concentrations”. The MIC50 (against C. albicans (ATCC 24433); in [1]; against C. krusei (ATCC 6258); in the data set with C. glabrata (ATCC 90030); in the data set with Candida species) was 0.78 µg/mL (≈ 1.69 µM) in each case. Further, the IC50 in data set [2] was found to be 65.3 ± 2.94 µg/mL (≈ 141 µM). In addition, in the data set with C. albicans, the “effect on C. albicans cell membrane (PI penetration)” value is recorded as “membrane damaging effect”. The “MIC50 against Candida species” value against Candida species was 0.78 to 1.56 µg/mL.

On to `Cn1c(SCC(=O)c2ccc(F)cc2F)nnc1-c1ccc(-c2nc3ccc(F)cc3[nH]2)cc1` [Compound 5y, 1-(2,4-Difluorophenyl)-2-((5-(4-(6-fluoro-1H-benzimidazol-2-yl)phenyl)-4-methyl-4H-1,2,4-triazol-3-yl)thio)ethan-1-one], for which the melting point is 263.2 °C. The same compound showed an MIC50 with C. albicans (ATCC 24433) of 0.78 µg/mL (≈ 1.63 µM). In addition, in [1], the MIC50 amounted to 1.56 µg/mL (≈ 3.25 µM). Moreover, the MIC50 with C. krusei (ATCC 6258) amounted to 0.78 µg/mL (≈ 1.63 µM). Further, the MIC50 against C. glabrata (ATCC 90030) worked out at 1.56 µg/mL (≈ 3.25 µM). The IC50 in data set [2] was found to be 11.1 ± 0.57 µg/mL (≈ 23.2 µM). Moreover, the MIC50 in the data set on Candida species fell in the range of 0.78 to 1.56 µg/mL (≈ 1.63 to 3.25 µM).
